Read-outs that look alike come from different tables or passages of the source.
Columns and labels:
[1] = tested on: pathogen of bacterial leaf streak (Xanthomonas oryzaes pv. Oryzicola); assay type: cell-based; conditions: for Inhibition rate of bacterial growth (%): immersed 24 h, growth observed after 3 d
[2] = tested on: rice seeds; conditions: seed soaking 24 h, tested after 6 d

CCCCCCCCCCCC[N+](C)(C)Cc1ccccc1.[Br-] [Dodecyl dimethyl benzyl ammonium bromide, dodecyl dimethyl benzyl ammonium bromide]
inhibitory effect on the pathogen of bacterial leaf streak of rice (in words) ([1]; dilutions 1:500 to 1:2000): a certain inhibitory effect
Inhibition rate of bacterial growth (%) ([1]; multiple for dilution 500): 41%
Inhibition rate of bacterial growth (%) ([1]; multiple for dilution 1000): 32%
Inhibition rate of bacterial growth (%) ([1]; multiple for dilution 1500): 30%
Inhibition rate of bacterial growth (%) ([1]; multiple for dilution 2000): 23%
Bud length (mm) ([2]; multiple for dilution 1500): 21 mm
Germination rate of seed (%) ([2]; multiple for dilution 1500): 55%
Root length (mm) ([2]; multiple for dilution 1500): 20 mm
Bud length (mm) ([2]; multiple for dilution 2000): 26 mm
Germination rate of seed (%) ([2]; multiple for dilution 2000): 56%
Root length (mm) ([2]; multiple for dilution 2000): 28 mm

From patent publication US20240215587A1 (priority 2020, published 2024)
